In patent US8802866B2, “Pyridinylimidazolone derivatives for the inhibition of PI3 kinases” (Merck Patent GmbH, priority 2009, dated 2014):

Tests used:
DNA-PK protein complex = DNA-PK protein complex (Homo sapiens, UniProt P78527); test: Biochemical DNA-PK assay (FlashPlate)
Description: The kinase assay is carried out in […] microtitre FlashPlates®, coated with streptavidin. […] The reaction is stopped by addition of 50 μl/well of 200 mM EDTA. After incubation for 30 minutes, the liquids are removed at room temperature. Each well is washed three times with 100 μl of 0.9% NaCl solution. Non-specific reaction (blank) is determined using a proprietary kinase inhibitor (10 μM). The radioactivity is measured by means of a Topcount. […] Todd Eary, J. G. Schiro, H. Huang, L. E. Burgess, E. A. Kesicki, and J. Halbrook.

PI3Kalpha = PI3Kalpha (Homo sapiens, UniProt P42336); test: Biochemical PI3Kalpha assay (neomycin SPA, lipid phosphorylation); settings: human recombinant GST-PI3K
Chain of PI3Kalpha (P42336 whole entry): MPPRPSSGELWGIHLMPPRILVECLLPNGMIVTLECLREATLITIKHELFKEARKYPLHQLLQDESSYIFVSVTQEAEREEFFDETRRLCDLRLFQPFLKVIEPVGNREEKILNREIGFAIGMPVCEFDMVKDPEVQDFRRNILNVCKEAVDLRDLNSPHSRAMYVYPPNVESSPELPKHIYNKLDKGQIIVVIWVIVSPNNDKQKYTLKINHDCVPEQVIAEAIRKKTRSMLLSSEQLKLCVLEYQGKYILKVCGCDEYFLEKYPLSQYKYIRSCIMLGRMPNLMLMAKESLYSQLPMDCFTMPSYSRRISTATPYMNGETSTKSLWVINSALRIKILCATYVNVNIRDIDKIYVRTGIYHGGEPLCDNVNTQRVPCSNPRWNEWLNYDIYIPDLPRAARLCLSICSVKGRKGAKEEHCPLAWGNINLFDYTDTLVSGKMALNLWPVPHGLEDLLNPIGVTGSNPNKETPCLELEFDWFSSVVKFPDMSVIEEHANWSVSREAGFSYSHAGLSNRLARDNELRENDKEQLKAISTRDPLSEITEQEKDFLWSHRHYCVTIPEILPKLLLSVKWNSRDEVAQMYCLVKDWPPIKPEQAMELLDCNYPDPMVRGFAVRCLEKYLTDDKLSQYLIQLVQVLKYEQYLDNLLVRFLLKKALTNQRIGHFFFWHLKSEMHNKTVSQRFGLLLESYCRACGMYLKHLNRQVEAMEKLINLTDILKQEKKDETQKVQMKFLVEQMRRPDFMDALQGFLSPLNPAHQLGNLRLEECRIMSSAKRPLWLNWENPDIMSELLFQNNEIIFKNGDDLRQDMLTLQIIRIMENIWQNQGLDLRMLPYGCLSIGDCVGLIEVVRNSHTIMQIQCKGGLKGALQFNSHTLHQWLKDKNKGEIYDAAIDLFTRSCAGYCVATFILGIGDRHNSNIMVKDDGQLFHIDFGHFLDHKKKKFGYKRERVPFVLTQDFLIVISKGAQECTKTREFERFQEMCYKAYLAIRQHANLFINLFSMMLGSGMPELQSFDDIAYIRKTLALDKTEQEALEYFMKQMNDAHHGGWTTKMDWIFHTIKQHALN
Chain of PI3Kalpha (P27986 whole entry partner): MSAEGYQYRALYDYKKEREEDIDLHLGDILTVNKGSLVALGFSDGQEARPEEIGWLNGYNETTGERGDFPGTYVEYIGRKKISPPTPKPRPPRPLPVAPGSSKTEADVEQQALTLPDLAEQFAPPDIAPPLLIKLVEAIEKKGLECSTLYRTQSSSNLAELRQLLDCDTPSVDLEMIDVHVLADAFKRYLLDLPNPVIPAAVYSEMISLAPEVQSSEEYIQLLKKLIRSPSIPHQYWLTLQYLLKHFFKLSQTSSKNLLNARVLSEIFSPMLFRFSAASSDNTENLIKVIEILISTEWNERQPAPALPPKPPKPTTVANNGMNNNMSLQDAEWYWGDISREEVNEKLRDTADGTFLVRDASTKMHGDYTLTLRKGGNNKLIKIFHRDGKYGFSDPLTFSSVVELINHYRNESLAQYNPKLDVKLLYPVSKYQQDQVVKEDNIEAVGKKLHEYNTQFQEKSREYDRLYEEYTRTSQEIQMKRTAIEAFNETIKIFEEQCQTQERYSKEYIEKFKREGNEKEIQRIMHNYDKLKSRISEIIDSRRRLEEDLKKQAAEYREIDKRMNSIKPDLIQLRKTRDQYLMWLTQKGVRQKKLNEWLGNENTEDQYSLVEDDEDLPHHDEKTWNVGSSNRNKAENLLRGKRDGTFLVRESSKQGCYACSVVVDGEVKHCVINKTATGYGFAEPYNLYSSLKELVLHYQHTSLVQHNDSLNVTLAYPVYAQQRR
Description: (§1) The efficacy of the compounds according to the invention in the inhibition of PI3K-induced lipid phosphorylation can be investigated in the following binding assay. The assay combines scintillation proximity assay (SPA) technology (Amersham) with the ability of neomycin (a polycationic antibiotic) to bind phospholipids with high affinity and specificity. […] The coating of SPA beads with neomycin allows the detection of phosphorylated lipid substrates after incubation with recombinant PI3K and radioactive ATP in the same well by trapping the radioactive phospholipids by the SPA beads owing to their specific binding to neomycin. […] After incubation at room temperature for 120 minutes with gentle stirring, the reaction was stopped by addition of 200 μl of a solution comprising 250 μg of neomycin-coated PVT-SPA beads, ATP 60 mM and EDTA 6.2 mM in PBS. The assay is incubated at room temperature for a further 60 minutes with gentle stirring in order to enable binding of the phospholipids to the neomycin-SPA beads. After precipitation of the neomycin-coated PVT-SPA beads over 5 minutes at 1500×g, radioactive Ptdlns(3)P is quantified by scintillation counting in a Wallac Micro-Beta™ plate counter.

PI3Kbeta = PI3Kbeta (Homo sapiens, UniProt P42338); test: Biochemical PI3Kbeta assay (neomycin SPA, lipid phosphorylation); settings: human recombinant GST-PI3K
Chain of PI3Kbeta (P42338 whole entry): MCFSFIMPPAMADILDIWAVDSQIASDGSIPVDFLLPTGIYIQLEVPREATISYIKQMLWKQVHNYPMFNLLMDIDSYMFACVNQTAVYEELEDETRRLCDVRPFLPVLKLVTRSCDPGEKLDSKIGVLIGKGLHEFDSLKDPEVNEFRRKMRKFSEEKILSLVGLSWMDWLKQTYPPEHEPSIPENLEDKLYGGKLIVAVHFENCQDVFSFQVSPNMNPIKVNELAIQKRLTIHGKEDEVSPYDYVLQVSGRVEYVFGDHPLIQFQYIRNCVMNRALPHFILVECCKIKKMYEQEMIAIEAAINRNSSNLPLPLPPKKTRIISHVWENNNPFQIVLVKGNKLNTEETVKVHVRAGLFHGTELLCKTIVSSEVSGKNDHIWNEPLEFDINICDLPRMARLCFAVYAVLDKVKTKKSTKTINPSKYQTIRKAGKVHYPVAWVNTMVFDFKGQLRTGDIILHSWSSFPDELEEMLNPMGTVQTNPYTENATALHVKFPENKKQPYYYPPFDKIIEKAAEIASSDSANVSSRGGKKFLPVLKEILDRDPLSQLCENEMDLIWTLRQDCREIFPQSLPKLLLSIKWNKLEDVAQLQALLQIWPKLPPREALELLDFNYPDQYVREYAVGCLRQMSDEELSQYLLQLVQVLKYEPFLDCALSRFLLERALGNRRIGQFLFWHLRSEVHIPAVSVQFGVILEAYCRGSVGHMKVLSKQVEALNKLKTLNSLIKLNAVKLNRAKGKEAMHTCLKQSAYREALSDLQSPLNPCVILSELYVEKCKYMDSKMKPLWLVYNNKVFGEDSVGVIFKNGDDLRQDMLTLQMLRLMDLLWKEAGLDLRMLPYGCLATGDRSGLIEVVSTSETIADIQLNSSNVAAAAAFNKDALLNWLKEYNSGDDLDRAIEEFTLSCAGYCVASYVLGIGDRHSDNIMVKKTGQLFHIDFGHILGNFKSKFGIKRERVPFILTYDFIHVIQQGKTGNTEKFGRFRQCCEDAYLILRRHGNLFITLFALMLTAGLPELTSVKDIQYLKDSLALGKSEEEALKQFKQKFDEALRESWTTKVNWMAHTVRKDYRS
Chain of PI3Kbeta (P27986 whole entry partner): as the sequence (P27986 whole entry partner) above
Description: as §1

[1] = system: PI3K-dependent phosphorylation of PKB at Serin 473 in PC3 cells; test: Cellular PI3K assay (P-S473-PKB Luminex assay in PC3 cells); assay type: cell-based; settings: Homo sapiens, PC-3, 0.5 h; PC3 cells, 30 min, serum-free, P-S473-PKB; read-out: IC50 (cell)
Description: The cellular assay for determination of the P-S473-PKB level is carried out as a Luminex assay in 96-well format in PC3 cells.
PC3 cells are sown out with 20,000 cells per well in 100 μl medium (45% […]/45% Ham's F12/10% FCS) and incubated on the following day for 30 min with a serial dilution of the test substance (7 concentrations) under serum-free conditions. The cells are subsequently lysed using 90 μl of lysis buffer (20 mM Tris/HCl pH 8.0, 150 mM NaCl, 1% NP40, 10% glycerol, 1% phosphatase inhibitor I, 1% phosphatase inhibitor II, 0.1% protease inhibitor cocktail III, 0.01% benzonase) per well, and the lysates are separated off from insoluble cell constituents by means of centrifugation through a 96-well filter plate (0.65 μm). The lysates are incubated overnight at 4° C. with shaking with Luminex beads to which an anti-total PKB antibody is coupled. The detection is carried out on the following day by addition of a P-S473-PKB antibody and a species-specific PE-labelled secondary antibody. The detection of P-S473-PKB is carried out by measurement in a Luminex100 instrument by determination of 100 events per cavity in a measurement time of 60 sec.

| Structure (SMILES) | IC50 (DNA-PK protein complex) [nM] | IC50 (PI3Kalpha) [nM] | IC50 (PI3Kbeta) [nM] | IC50 [1] [nM] |
| --- | --- | --- | --- | --- |
| Cn1cc(-c2cc(-c3cnc4c(ccn4C)c3)ccn2)n(-c2ccc(C(C)(C)C#N)cc2)c1=O [Example A54, 2-Methyl-2-(4-{3-methyl-5-[4-(1-methyl-1H-pyrrolo[2,3-b]pyridin-5-yl)pyridin-2-yl]-2-oxo-2,3-dihydroimidazol-1-yl}phenyl)propionitrile] | 0.1 to 100 | 100 to 10000 | 100 to 10000 | 100 to 10000 |
| Cn1cc(-c2cc(-c3cnc(N)c(C#N)n3)ccn2)n(-c2ccc(C(C)(C)C#N)cc2)c1=O [Example A70, 3-Amino-6-(2-{3-[4-(cyanodimethylmethyl)phenyl]-1-methyl-2-oxo-2,3-dihydro-1H-imidazol-4-yl}pyridin-4-yl)pyrazine-2-carbonitrile] | 100 to 10000 | 100 to 10000 | 100 to 10000 | 100 to 10000 |
| Cn1cc(-c2cc(-c3cnc4[nH]ccc4n3)ccn2)n(-c2ccc(C(C)(C)C#N)cc2)c1=O [Example A78, 2-Methyl-2-(4-{3-methyl-2-oxo-5-[4-(5H-pyrrolo[2,3-b]pyrazin-2-yl)pyridin-2-yl]-2,3-dihydroimidazol-1-yl}phenyl)propionitrile] | 100 to 10000 | 100 to 10000 | 100 to 10000 | 100 to 10000 |
| CNCc1ccc(-c2ccnc(-c3cn(C)c(=O)n3-c3ccc(C(C)(C)C#N)cc3)c2)cn1 [Example A95, 2-Methyl-2-{4-[3-methyl-5-(6-methylaminomethyl-[3,4′]bipyridinyl-2′-yl)-2-oxo-2,3-dihydroimidazol-1-yl]phenyl}propionitrile] | 100 to 10000 | > 10000 | > 10000 | > 10000 |
| CN1CCN(c2ccc(-n3c(-c4cc(-c5ccc6[nH]ccc6c5)ccn4)cn(C)c3=O)cc2C(F)(F)F)CC1 [Example A102, 4-[4-(1H-Indol-5-yl)pyridin-2-yl]-1-methyl-3-[4-(4-methylpiperazin-1-yl)-3-trifluoromethylphenyl]-1,3-dihydroimidazol-2-one] | 100 to 10000 | 100 to 10000 |  | 100 to 10000 |
| CN1CCN(c2ccc(-n3c(-c4cc(-c5cnc(N)c(C(F)(F)F)c5)ccn4)cn(C)c3=O)cc2C(F)(F)F)CC1 [Example A103, 4-(6-Amino-5-trifluoromethyl-[3,4′]bipyridinyl-2′-yl)-1-methyl-3-[4-(4-methyl-piperazin-1-yl)-3-trifluoromethylphenyl]-1,3-dihydroimidazol-2-one] | 100 to 10000 | 100 to 10000 | 100 to 10000 | 100 to 10000 |
| Cn1cc(-c2cc(-c3cnc4[nH]ccc4c3)ccn2)n(-c2ccc(N3CCN(Cc4cccnc4)CC3)c(C(F)(F)F)c2)c1=O [Example A106, 1-Methyl-3-[4-(4-pyridin-3-ylmethylpiperazin-1-yl)-3-trifluoromethylphenyl]-4-[4-(1H-pyrrolo[2,3-b]pyridin-5-yl)pyridin-2-yl]-1,3-dihydroimidazol-2-one] | 100 to 10000 |  |  | 0.1 to 100 |

Now from value to compound:

| IC50 (DNA-PK protein complex) [nM] | IC50 (PI3Kalpha) [nM] | IC50 (PI3Kbeta) [nM] | IC50 [1] [nM] | Structure (SMILES) |
| --- | --- | --- | --- | --- |
| 100 to 10000 |  |  |  | Cn1cc(-c2cncc(-c3cnc4ccccc4c3)c2)n(-c2ccc(C(C)(C)C#N)cc2)c1=O [Example A2, 2-Methyl-2-{4-[3-methyl-2-oxo-5-(5-quinolin-3-ylpyridin-3-yl)-2,3-dihydroimidazol-1-yl]phenyl}propionitrile] |
| 100 to 10000 | 100 to 10000 | > 10000 | 100 to 10000 | CC(=O)Nc1ncc(-c2ccnc(-c3cn(C)c(=O)n3-c3cccc(C#N)c3)c2)cc1C(F)(F)F [Example A68, N-{2′-[3-(3-Cyanophenyl)-1-methyl-2-oxo-2,3-dihydro-1H-imidazol-4-yl]-5-trifluoromethyl-[3,4′]bipyridinyl-6-yl}acetamide] |
| 0.1 to 100 | 100 to 10000 | 100 to 10000 | > 10000 | Cn1cc(-c2cc(-c3cnc4nccnc4c3)ccn2)n(-c2ccc(C(C)(C)C#N)cc2)c1=O [Example A81, 2-Methyl-2-{4-[3-methyl-2-oxo-5-(4-pyrido[2,3-b]pyrazin-7-ylpyridin-2-yl)-2,3-dihydroimidazol-1-yl]phenyl}propionitrile] |
| 0.1 to 100 | 100 to 10000 | 100 to 10000 | 100 to 10000 | CN1CCN(c2ccc(-n3c(-c4cc(-c5cnc(N)c(C(F)(F)F)c5)ccn4)cn(C)c3=O)cc2C#N)CC1 [Example A82, 5-[5-(6-Amino-5-trifluoromethyl-[3,4′]bipyridinyl-2′-yl)-3-methyl-2-oxo-2,3-dihydroimidazol-1-yl]-2-(4-methylpiperazin-1-yl)benzonitrile] |
| 100 to 10000 | 100 to 10000 | 100 to 10000 | 100 to 10000 | Cn1cc(-c2cc(-c3c[nH]c4ncccc34)ccn2)n(-c2ccc(C(C)(C)C#N)cc2)c1=O [Example A100, 2-Methyl-2-(4-{3-methyl-2-oxo-5-[4-(1H-pyrrolo[2,3-b]pyridin-3-yl)pyridin-2-yl]-2,3-dihydroimidazol-1-yl}phenyl)propionitrile] |
| 0.1 to 100 | 100 to 10000 |  | 100 to 10000 | Cc1cc2cc(-c3ccnc(-c4cn(C)c(=O)n4-c4cccc(Oc5ccccc5)c4)c3)cnc2[nH]1 [Example A104, 1-Methyl-4-[4-(2-methyl-1H-pyrrolo[2,3-b]pyridin-5-yl)pyridin-2-yl]-3-(3-phenoxy-phenyl)-1,3-dihydroimidazol-2-one] |
| 0.1 to 100 |  |  | 100 to 10000 | Cn1cc(-c2cc(-c3cc(F)c(N)c(C(F)(F)F)c3)ccn2)n(-c2ccc(C(C)(C)C#N)cc2)c1=O [Example A107, 2-(4-{5-[4-(4-Amino-3-fluoro-5-trifluoromethylphenyl)pyridin-2-yl]-3-methyl-2-oxo-2,3-dihydroimidazol-1-yl}phenyl)-2-methylpropionitrile] |
| > 10000 | > 10000 | > 10000 | > 10000 | COc1ccc(Cn2c(-c3cc(-c4cnc(NC(C)=O)c(C(F)(F)F)c4)ccn3)cn(C)c2=O)cc1 [Example A111, N-{2′-[3-(4-Methoxybenzyl)-1-methyl-2-oxo-2,3-dihydro-1H-imidazol-4-yl]-5-trifluoromethyl-[3,4′]bipyridinyl-6-yl}acetamide] |
